Laboratory results from US20240226066A1, “CARDIOPROTECTION BY AUTOPHAGY INDUCTION AND METABOLIC REPROGRAMMING” (UNIVERSITE PARIS-SACLAY, priority 2021, published 2024).
Like-named read-outs stand apart in the source and are kept apart here.

How the values were obtained:
LC3II = assay: LC3 I/II conversion by western blot in RNVCs; format: cell-based, rat; conditions: 1 μM
Protocol: FIG. 4E: LC3-I/II protein levels in the RNVCs. Data are presented as mean±SEM with single-factor ANOVA, and multiple Sidak comparisons. *, p<0.05, **, p<0.01 with respect to DMSO.
The H9C2 cells and RNVCs were detached in LB containing: 50 mM Tris, 150 mM NaCl, 1 mM EDTA, 0.5% deoxycholate, 1% Triton X 100, 0.1% SDS (pH 8.0). The cells were collected and placed on ice for 30 minutes. The cells were then centrifuged at 2000 g for 20 minutes at for 4° C. The supernatant was transferred to a new tube and stored on ice. The protein concentration was determined by BCA assay. The protein samples were diluted with sample buffer (2× Laemmli, Sigma), mixed, and heated for 5 minutes at 95° C. […] The images were recorded with a gel imaging system (Bio Rad). […]
(§1) Next, the hypothesis that the compounds could protect cardiac cells by activating autophagy, a catabolic process conserved in evolution that involves the degradation of damaged cytoplasmic components, was formulated. […] Then, the cells were treated with the hits and with H2O2 for 2 hours and their survival was analyzed 4 hours later by measuring LDH release (FIGS. 4B, 4C). […] In order to confirm the induction of autophagy by another approach, the RNVCs were transfected with a GFP-LC3 plasmid and the formation of the autophagosome was monitored 24 hours later. […]

hERG potassium channel = target: T1, hERG potassium channel (Homo sapiens, UniProt Q12809); assay: hERG channel binding assay ([3H]dofetilide displacement); conditions: for inhibition at 10 µM: human, probe [3H]dofetilide
T1 construct: Eurofins
T1 sequence (Q12809 whole entry): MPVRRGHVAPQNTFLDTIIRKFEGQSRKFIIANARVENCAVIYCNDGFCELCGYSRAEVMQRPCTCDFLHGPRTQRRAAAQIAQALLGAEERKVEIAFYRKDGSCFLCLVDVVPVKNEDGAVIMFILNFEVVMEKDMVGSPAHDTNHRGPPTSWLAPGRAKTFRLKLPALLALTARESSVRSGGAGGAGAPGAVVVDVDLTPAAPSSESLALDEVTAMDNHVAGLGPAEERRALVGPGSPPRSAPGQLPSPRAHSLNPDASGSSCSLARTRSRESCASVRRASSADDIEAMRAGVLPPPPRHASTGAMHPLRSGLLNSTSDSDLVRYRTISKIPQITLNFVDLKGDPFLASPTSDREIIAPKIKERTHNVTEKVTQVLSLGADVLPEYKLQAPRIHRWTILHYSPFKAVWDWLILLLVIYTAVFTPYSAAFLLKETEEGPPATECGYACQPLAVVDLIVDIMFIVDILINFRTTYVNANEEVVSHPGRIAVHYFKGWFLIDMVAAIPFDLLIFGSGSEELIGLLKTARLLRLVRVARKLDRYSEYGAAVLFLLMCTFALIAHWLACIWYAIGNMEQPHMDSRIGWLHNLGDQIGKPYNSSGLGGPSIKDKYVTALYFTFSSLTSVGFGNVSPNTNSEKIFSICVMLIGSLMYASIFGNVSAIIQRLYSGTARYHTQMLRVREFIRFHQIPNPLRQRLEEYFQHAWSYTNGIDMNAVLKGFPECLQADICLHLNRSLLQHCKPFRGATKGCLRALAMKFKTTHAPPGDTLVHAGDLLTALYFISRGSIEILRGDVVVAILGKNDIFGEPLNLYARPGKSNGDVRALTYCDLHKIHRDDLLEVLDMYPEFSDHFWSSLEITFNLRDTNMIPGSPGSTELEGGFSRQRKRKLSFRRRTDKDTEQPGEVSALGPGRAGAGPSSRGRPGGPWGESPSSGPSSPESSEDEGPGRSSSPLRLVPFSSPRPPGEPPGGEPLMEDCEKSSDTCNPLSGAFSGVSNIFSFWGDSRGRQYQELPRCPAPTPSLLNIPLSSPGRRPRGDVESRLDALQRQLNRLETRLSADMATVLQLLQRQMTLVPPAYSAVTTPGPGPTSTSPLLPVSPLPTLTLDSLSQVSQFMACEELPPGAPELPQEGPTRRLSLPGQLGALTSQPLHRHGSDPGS
Protocol: The evaluation of the binding of the compounds to the human hERG potassium channel was carried out as described previously (Eurofins).
Since the blocking of the human potassium channel hERG channel may be responsible for cardiac fibrillation leading to cardiac arrest and death of the patient, the binding of the 3 molecules SG6163F, VP331 and LOPA87 to this receptor was evaluated.

RNVCs = assay: Autophagosome formation after GFP-LC3 plasmid transfection (fluorescence microscopy); format: cell-based, rat; conditions: GFP-LC3 transfected RNVCs
Protocol: FIG. 4D: after transfection of the plasmid GFP-LC3, the fluorescent green GFP-LC3 spots were visualized by fluorescence microscopy and quantified with ImageJ to verify autophagosome formation. Data are presented as mean±SEM with single-factor ANOVA, and multiple Sidak comparisons. ***, p<0.001 with respect to 0.01% DMSO.
On day 0, 4×10^5 neonatal cardiomyocytes were plated overnight in laminin-coated 35 mm culture dishes (10 μg/ml). On day 1, the cells were transfected with 1 μg of GFP-LC3 plasmid using the transfection reagent Lipofectamine® 2000 (1 μg of GFP-LC3 corresponds to 2.5 μl of transfection reagent), for 48 h, then the green fluorescence was detected with a Leica confocal microscope (SP5). The analyses were carried out with the ImageJ program (Wayne Rasband, National Institutes of Health, USA).
as §1

O=C1NC(c2ccccc2)=N/C1=C\c1cc2ccccc2c2ccccc12 [SG6163F]
increase in level of expression of LC3II (LC3II): > 1.5 fold | inhibition at 10 µM (hERG potassium channel; inhibition of tritiated dofetilide binding, only values >50% considered effective, read-out: % inhibit 1st assay): 40.5% | inhibition at 10 µM (hERG potassium channel; inhibition of tritiated dofetilide binding, only values >50% considered effective, read-out: % inhibit 2nd assay): 36.6% | inhibition at 10 µM (hERG potassium channel; mean of two independent measurements, read-out: % inhibit Mean): 38.5% | binding to the hERG channel (hERG potassium channel; inhibition of specific binding of [3H]dofetilide in vitro): negligible | formation of autophagosomes (RNVCs): capable of causing the formation of autophagosomes
